{"source": "ChEMBL document CHEMBL3739305", "about": "“A synthetic chalcone derivative, 2-hydroxy-3',5,5'-trimethoxychalcone (DK-139), suppresses the TNFα-induced invasive capability of MDA-MB-231 human breast cancer cells by inhibiting NF-κB-mediated GROα expression” (Bioorg Med Chem Lett, 2016)", "key": {"[1]": {"molecular_target": "T1, Inhibitor of nuclear factor kappa-B kinase subunit alpha (Homo sapiens) (UniProt O15111)", "T1 sequence (whole entry)": "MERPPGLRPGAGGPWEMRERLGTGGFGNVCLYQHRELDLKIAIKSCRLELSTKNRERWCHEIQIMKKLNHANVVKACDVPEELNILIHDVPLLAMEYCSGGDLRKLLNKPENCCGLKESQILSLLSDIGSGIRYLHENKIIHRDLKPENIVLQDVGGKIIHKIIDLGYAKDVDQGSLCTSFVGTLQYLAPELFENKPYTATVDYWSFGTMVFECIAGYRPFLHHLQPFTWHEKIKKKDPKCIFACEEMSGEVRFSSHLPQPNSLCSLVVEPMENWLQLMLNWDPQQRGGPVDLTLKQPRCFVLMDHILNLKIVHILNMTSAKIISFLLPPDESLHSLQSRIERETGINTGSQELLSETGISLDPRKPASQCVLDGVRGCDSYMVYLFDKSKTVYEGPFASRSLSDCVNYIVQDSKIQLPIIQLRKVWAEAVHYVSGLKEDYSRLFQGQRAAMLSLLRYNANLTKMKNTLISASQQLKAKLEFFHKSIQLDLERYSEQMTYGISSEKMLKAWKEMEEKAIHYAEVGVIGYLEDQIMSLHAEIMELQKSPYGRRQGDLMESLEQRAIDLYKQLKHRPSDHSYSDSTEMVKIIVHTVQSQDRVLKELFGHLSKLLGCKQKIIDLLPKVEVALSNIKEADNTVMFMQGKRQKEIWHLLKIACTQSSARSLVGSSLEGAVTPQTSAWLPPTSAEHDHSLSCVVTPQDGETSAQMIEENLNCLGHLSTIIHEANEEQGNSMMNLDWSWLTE", "test": "Inhibition of TNF-alpha-induced IKK-alpha phosphorylation in human MDA-MB-231 cells at Ser176 residue at 5 and 10 uM pretreated for 30 mins followed by addition of TNF-alpha for 1 hr by immunoblot analysis", "assay_type": "cell-based"}, "[2]": {"molecular_target": "T2, Inhibitor of NF-kappa-B kinase (IKK) (Homo sapiens) (UniProt O14920+O15111+Q9Y6K9)", "test": "Inhibition of IKK in human MDA-MB-231 cells assessed as decrease in TNF-alpha-induced GROalpha mRNA level pretreated with compound for 30 mins followed by addition of TNF-alpha measured after 12 hrs by QR-PCR analysis", "assay_type": "cell-based"}, "MDA-MB-231 [3]": {"system": "MDA-MB-231", "test": "Inhibition of TNF-alpha-induced cell invasion in human MDA-MB-231 cells assessed as decrease in spindle-like protrusions at 10 uM pretreated for 30 mins followed by addition of TNF-alpha by microscopic analysis", "assay_type": "functional, cell-based"}, "[4]": {"molecular_target": "T2, Inhibitor of NF-kappa-B kinase (IKK) (Homo sapiens)", "test": "Inhibition of IKK in human MDA-MB-231 cells assessed as inhibition of TNF-alpha-induced p65/RelA phosphorylation at Ser-536 residue in nucleus at 10 uM pretreated for 30 mins followed by addition of TNF-alpha for 1 hr by immunofluorescence analysis", "assay_type": "cell-based"}, "[5]": {"molecular_target": "T2, Inhibitor of NF-kappa-B kinase (IKK) (Homo sapiens)", "test": "Inhibition of IKK in human MDA-MB-231 cells assessed as decrease in TNF-alpha-induced GROalpha mRNA level at 10 uM pretreated for 30 mins followed by addition of TNF-alpha measured after 12 hrs by QR-PCR analysis", "assay_type": "cell-based"}, "[6]": {"molecular_target": "T2, Inhibitor of NF-kappa-B kinase (IKK) (Homo sapiens)", "test": "Inhibition of IKK in human MDA-MB-231 cells assessed as inhibition of TNF-alpha-induced p65/RelA phosphorylation at Ser-536 residue at 5 and 10 uM pretreated for 30 mins followed by addition of TNF-alpha for 1 hr by immunoblot analysis", "assay_type": "cell-based"}, "[7]": {"molecular_target": "T3, Inhibitor of nuclear factor kappa-B kinase subunit beta (Homo sapiens) (UniProt O14920)", "T3 sequence (whole entry)": "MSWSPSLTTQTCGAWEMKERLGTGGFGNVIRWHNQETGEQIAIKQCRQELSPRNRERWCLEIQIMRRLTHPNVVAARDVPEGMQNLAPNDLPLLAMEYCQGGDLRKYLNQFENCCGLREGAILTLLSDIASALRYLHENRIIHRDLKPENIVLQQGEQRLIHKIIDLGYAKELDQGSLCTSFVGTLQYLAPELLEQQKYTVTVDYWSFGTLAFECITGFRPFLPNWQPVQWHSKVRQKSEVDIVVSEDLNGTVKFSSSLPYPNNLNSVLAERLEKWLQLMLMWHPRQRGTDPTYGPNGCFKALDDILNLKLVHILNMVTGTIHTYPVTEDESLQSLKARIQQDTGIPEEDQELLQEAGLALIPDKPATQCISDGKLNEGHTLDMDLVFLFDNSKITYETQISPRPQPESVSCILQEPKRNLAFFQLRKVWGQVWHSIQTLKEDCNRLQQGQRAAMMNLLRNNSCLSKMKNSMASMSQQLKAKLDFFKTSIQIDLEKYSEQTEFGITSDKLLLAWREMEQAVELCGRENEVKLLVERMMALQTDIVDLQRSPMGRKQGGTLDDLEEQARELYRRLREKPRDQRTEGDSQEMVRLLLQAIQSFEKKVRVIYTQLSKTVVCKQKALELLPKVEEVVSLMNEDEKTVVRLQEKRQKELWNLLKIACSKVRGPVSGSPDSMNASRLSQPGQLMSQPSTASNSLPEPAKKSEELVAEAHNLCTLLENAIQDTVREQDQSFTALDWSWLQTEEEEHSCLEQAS", "test": "Inhibition of TNF-alpha-induced IKK-beta phosphorylation at Ser180 residue in human MDA-MB-231 cells at 5 and 10 uM pretreated for 30 mins followed by addition of TNF-alpha for 1 hr by immunoblot analysis", "assay_type": "cell-based"}, "[8]": {"molecular_target": "T2, Inhibitor of NF-kappa-B kinase (IKK) (Homo sapiens)", "test": "Inhibition of IKK in human MDA-MB-231 cells assessed as decrease in TNF-alpha-induced GROalpha mRNA level pretreated with compound for 30 mins followed by addition of TNF-alpha measured after 12 hrs by RT-PCR analysis", "assay_type": "cell-based"}, "[9]": {"molecular_target": "T2, Inhibitor of NF-kappa-B kinase (IKK) (Homo sapiens)", "test": "Inhibition of IKK in human MDA-MB-231 cells assessed as inhibition of TNF-alpha-induced IkappaB phosphorylation at Ser-32 residue at 5 and 10 uM pretreated for 30 mins followed by addition of TNF-alpha for 1 hr by immunoblot analysis", "assay_type": "cell-based"}, "MDA-MB-231 [10]": {"system": "MDA-MB-231", "test": "Inhibition of TNF-alpha-induced cell migration in human MDA-MB-231 cells at 10 uM pretreated for 30 mins followed by addition of TNF-alpha measured after 6 hrs by scratch wound healing assay", "assay_type": "functional, cell-based"}, "[11]": {"molecular_target": "T2, Inhibitor of NF-kappa-B kinase (IKK) (Homo sapiens)", "test": "Inhibition of IKK in human MDA-MB-231 cells assessed as inhibition of TNF-alpha-induced GROalpha promoter activation pretreated with compound for 30 mins followed by addition of TNF-alpha for 8 hrs by luciferase reporter gene assay", "assay_type": "cell-based"}, "MDA-MB-231 [12]": {"system": "MDA-MB-231", "test": "Inhibition of TNF-alpha-induced cell invasion in human MDA-MB-231 cells at 10 uM pretreated for 30 mins followed by addition of TNF-alpha measured after 24 hrs by matrigel invasion assay", "assay_type": "functional, cell-based"}, "[13]": {"molecular_target": "T2, Inhibitor of NF-kappa-B kinase (IKK) (Homo sapiens)", "test": "Inhibition of IKK in human MDA-MB-231 cells assessed as inhibition of TNF-alpha-induced NF-kappaB transcriptional activity pretreated with compound for 30 mins followed by addition of TNF-alpha for 8 hrs by luciferase reporter gene assay", "assay_type": "cell-based"}, "MDA-MB-231 [14]": {"system": "MDA-MB-231", "test": "Inhibition of TNF-alpha-induced cell motility in human MDA-MB-231 cells assessed as lamellipodium projection at 10 uM pretreated for 30 mins followed by addition of TNF-alpha measured after 10 mins by rhodamine- phalloidin staining based assay", "assay_type": "functional"}}, "note": "Calls of active or inactive are those of the source. The calls are words filed in the database; no cut-off is given here.", "data": [{"compound": "COc1cc(/C=C/C(=O)c2cc(OC)ccc2O)cc(OC)c1", "values": [{"measurement": "inhibition", "setting": "[1]", "result": "Active"}, {"measurement": "inhibition", "setting": "[2]", "result": "Dose-dependent effect"}, {"measurement": "inhibition", "setting": "MDA-MB-231 [3]", "result": "Active"}, {"measurement": "inhibition", "setting": "[4]", "result": "Active"}, {"measurement": "fold change (FC)", "setting": "[5]", "result": 4.1}, {"measurement": "inhibition", "setting": "[6]", "result": "Active"}, {"measurement": "inhibition", "setting": "[7]", "result": "Active"}, {"measurement": "inhibition", "setting": "[8]", "result": "Dose-dependent effect"}, {"measurement": "inhibition", "setting": "[9]", "result": "Active"}, {"measurement": "inhibition", "setting": "MDA-MB-231 [10]", "result": "Active"}, {"measurement": "inhibition", "setting": "[11]", "result": "Dose-dependent effect"}, {"measurement": "inhibition", "setting": "MDA-MB-231 [12]", "result": "Active"}, {"measurement": "inhibition", "setting": "[13]", "result": "Dose-dependent effect"}, {"measurement": "inhibition", "setting": "MDA-MB-231 [14]", "result": "Active"}]}]}
